From ChEMBL document CHEMBL5154811, “Discovery of SPH5030, a Selective, Potent, and Irreversible Tyrosine Kinase Inhibitor for HER2-Amplified and HER2-Mutant Cancer Treatment” (J Med Chem, 2022)

Key:
[1] = target: Epidermal growth factor receptor (Homo sapiens, UniProt P00533); experiment: Inhibition of wild type human N-terminal GST tagged EGFR (669 to 1210 residues) expressed in Sf21 insect cells incubated for 30 mins in presence of ATP by HTRF analysis
NCI-N87 [2] = experiment: Antiproliferative activity against human NCI-N87 cells assessed as inhibition of cell growth incubated for 72 hrs by Celltiter-Glo assay; assay type: functional, cell-based; conditions: NCI-N87, 72 h
BT-474 [3] = experiment: Antiproliferative activity against human BT-474 cells assessed as inhibition of cell growth incubated for 72 hrs by Celltiter-Glo assay; assay type: functional, cell-based; conditions: BT-474, 72 h
NCI-N87 [4] = experiment: Antitumor activity against human NCI-N87 cells xenografted in BALB/c nude mouse assessed as tumor growth inhibition by measuring relative tumor growth at 20 mg/kg/day, po administered once daily for 21 days by caliper method relative to control; assay type: functional; conditions: time 21 day
[5] = Metabolic stability in human liver microsomes assessed as intrinsic clearance at 1 uM preincubated for 5 mins followed by NADPH addition by LC-MS/MS analysis; assay type: ADME, Microsome; conditions: read-out: CLH
[6] = Clearance in ICR mouse at 3 mg/kg, iv measured upto 1440 mins by LC/MS/MS analysis; assay type: ADME, organism-based; conditions: in vivo
[7] = Half life in ICR mouse at 3 mg/kg, iv measured upto 1440 mins by LC/MS/MS analysis; assay type: ADME, organism-based; conditions: in vivo
[8] = Volume of distribution at steady state in ICR mouse at 3 mg/kg, iv measured upto 1440 mins by LC/MS/MS analysis; assay type: ADME, organism-based; conditions: in vivo, read-out: Vdss
[9] = Cmax in ICR mouse at 10 mg/kg, po measured upto 1440 mins by LC/MS/MS analysis; assay type: ADME, organism-based; parameters: dose 10 mg/kg, time < 1440 min, route po; conditions: in vivo
[10] = Tmax in ICR mouse at 10 mg/kg, po measured upto 1440 mins by LC/MS/MS analysis; assay type: ADME, organism-based; conditions: in vivo
[11] = AUC (0 to t) in ICR mouse at 10 mg/kg, po measured upto 1440 mins by LC/MS/MS analysis; assay type: ADME, organism-based; parameters: time < 1440 min, dose 10 mg/kg, route po; conditions: in vivo
[12] = Oral bioavailability in ICR mouse at 10 mg/kg measured upto 1440 mins by LC/MS/MS analysis; assay type: ADME, organism-based; conditions: in vivo
[13] = Half life in Sprague-Dawley rat at 3 mg/kg, iv measured upto 1440 mins by LC/MS/MS analysis; assay type: ADME, organism-based; conditions: in vivo
[14] = Volume of distribution at steady state in Sprague-Dawley rat at 3 mg/kg, iv measured upto 1440 mins by LC/MS/MS analysis; assay type: ADME, organism-based; conditions: in vivo, read-out: Vdss
[15] = AUC (0 to t) in Sprague-Dawley rat at 10 mg/kg, po measured upto 1440 mins by LC/MS/MS analysis; assay type: ADME, organism-based; parameters: dose 10 mg/kg, time < 1440 min, route po; conditions: in vivo
[16] = Half life in Sprague-Dawley rat at 10 mg/kg, po measured upto 1440 mins by LC/MS/MS analysis; assay type: ADME, organism-based; conditions: in vivo
[17] = Oral bioavailability in Sprague-Dawley rat at 10 mg/kg measured upto 1440 mins by LC/MS/MS analysis; assay type: ADME, organism-based; conditions: in vivo
[18] = Half life in cynomolgus monkey at 1 mg/kg, iv measured upto 1440 mins by LC/MS/MS analysis; assay type: ADME, organism-based, Macaca fascicularis; conditions: in vivo
[19] = Volume of distribution at steady state in cynomolgus monkey at 1 mg/kg, iv measured upto 1440 mins by LC/MS/MS analysis; assay type: ADME, organism-based, Macaca fascicularis; conditions: in vivo, read-out: Vdss
[20] = AUC (0 to t) in cynomolgus monkey at 15 mg/kg, po measured upto 1440 mins by LC/MS/MS analysis; assay type: ADME, organism-based, Macaca fascicularis; parameters: time < 1440 min, dose 15 mg/kg, route po; conditions: in vivo
[21] = Half life in cynomolgus monkey at 15 mg/kg, po measured upto 1440 mins by LC/MS/MS analysis; assay type: ADME, organism-based, Macaca fascicularis; conditions: in vivo
[22] = Oral bioavailability in cynomolgus monkey at 15 mg/kg measured upto 1440 mins by LC/MS/MS analysis; assay type: ADME, organism-based, Macaca fascicularis; conditions: in vivo
MDA-MB-468 = experiment: Antiproliferative activity against human MDA-MB-468 cells overexpressing wild type EGFR assessed as cell growth inhibition incubated for 72 hrs by Celltiter-Glo assay; assay type: functional, cell-based; conditions: MDA-MB-468, 72 h
ES-2 = experiment: Antiproliferative activity against human ES2 cells assessed as cell growth inhibition incubated for 72 hrs by Celltiter-Glo assay; assay type: functional, cell-based; conditions: ES-2, 72 h
MFE-280 = experiment: Antiproliferative activity against human MFE-280 cells assessed as cell growth inhibition incubated for 72 hrs by Celltiter-Glo assay; assay type: functional, cell-based; conditions: MFE-280, 72 h
NUGC-4 = experiment: Antiproliferative activity against human NUGC-4 cells assessed as cell growth inhibition incubated for 72 hrs by Celltiter-Glo assay; assay type: functional, cell-based; conditions: NUGC-4, 72 h
[23] = target: Receptor tyrosine-protein kinase erbB-2 (Homo sapiens, UniProt P04626, D769Y); experiment: Inhibition of HER2 D769Y mutant (unknown origin) incubated for 120 mins in presence of 33P-ATP by P81 ion exchange cellulose chromatography
[24] = target: Receptor tyrosine-protein kinase erbB-2 (Homo sapiens, UniProt P04626, V777L); experiment: Inhibition of HER2 V777L mutant (unknown origin) incubated for 120 mins in presence of 33P-ATP by P81 ion exchange cellulose chromatography
[25] = target: Receptor tyrosine-protein kinase erbB-2 (Homo sapiens, UniProt P04626, R896C); experiment: Inhibition of HER2 R896C mutant (unknown origin) incubated for 120 mins in presence of 33P-ATP by P81 ion exchange cellulose chromatography
NCI-N87 [26] = experiment: Antitumor activity against human NCI-N87 cells xenografted in BALB/c nude mouse assessed as tumor growth inhibition at 20 mg/kg/day, po administered once daily for 21 days relative to control; assay type: functional; conditions: NCI-N87, 504 h, time 21 day, read-out: TGI
BT-474 [27] = experiment: Antitumor activity against human BT-474 cells xenografted in BALB/c nude mouse assessed as tumor growth inhibition at 20 mg/kg/day, po administered once daily for 21 days relative to control; assay type: functional; conditions: BT-474, 504 h, time 21 day, read-out: TGI
[28] = Toxicity in BALB/c nude mouse xenografted with human BT-474 cells assessed as reduction in body weight at 5 to 40 mg/kg, po administered once daily for 21 days; assay type: organism-based; conditions: in vivo, 504 h, dose 5-40 mg/kg, time 21 day
BaF3 = experiment: Antitumor activity against mouse BaF3 cells harbouring HER2 A775_G776insYVMA mutant xenografted in BALB/c nude mouse assessed as tumor growth inhibition by measuring relative tumor growth at 40 mg/kg, po qd for 13 days by caliper method relative to control; assay type: functional; conditions: time 13 day
[29] = Toxicity in BALB/c nude mouse xenografted with mouse BaF3 cells harbouring HER2 A775_G776insYVMA mutant assessed as reduction in body weight at 10 to 40 mg/kg, po qd for 13 days; assay type: organism-based; conditions: in vivo, 312 h, dose 10-40 mg/kg, time 13 day
[30] = Toxicity in BALB/c nude mouse xenografted with mouse BaF3 cells harbouring HER2 A775_G776insYVMA mutant assessed as mortality at 10 to 40 mg/kg, po qd for 13 days; assay type: organism-based; conditions: in vivo, 312 h, dose 10-40 mg/kg, time 13 day
BT-474 [31] = experiment: Antitumor activity against human BT-474 cells xenografted in BALB/c nude mouse assessed as tumor growth inhibition at 10 mg/kg/day, po administered once daily for 21 days relative to control; assay type: functional; conditions: BT-474, 504 h, time 21 day, read-out: TGI

Sequence of Epidermal growth factor receptor (P00533 whole entry, the tested form may be a part): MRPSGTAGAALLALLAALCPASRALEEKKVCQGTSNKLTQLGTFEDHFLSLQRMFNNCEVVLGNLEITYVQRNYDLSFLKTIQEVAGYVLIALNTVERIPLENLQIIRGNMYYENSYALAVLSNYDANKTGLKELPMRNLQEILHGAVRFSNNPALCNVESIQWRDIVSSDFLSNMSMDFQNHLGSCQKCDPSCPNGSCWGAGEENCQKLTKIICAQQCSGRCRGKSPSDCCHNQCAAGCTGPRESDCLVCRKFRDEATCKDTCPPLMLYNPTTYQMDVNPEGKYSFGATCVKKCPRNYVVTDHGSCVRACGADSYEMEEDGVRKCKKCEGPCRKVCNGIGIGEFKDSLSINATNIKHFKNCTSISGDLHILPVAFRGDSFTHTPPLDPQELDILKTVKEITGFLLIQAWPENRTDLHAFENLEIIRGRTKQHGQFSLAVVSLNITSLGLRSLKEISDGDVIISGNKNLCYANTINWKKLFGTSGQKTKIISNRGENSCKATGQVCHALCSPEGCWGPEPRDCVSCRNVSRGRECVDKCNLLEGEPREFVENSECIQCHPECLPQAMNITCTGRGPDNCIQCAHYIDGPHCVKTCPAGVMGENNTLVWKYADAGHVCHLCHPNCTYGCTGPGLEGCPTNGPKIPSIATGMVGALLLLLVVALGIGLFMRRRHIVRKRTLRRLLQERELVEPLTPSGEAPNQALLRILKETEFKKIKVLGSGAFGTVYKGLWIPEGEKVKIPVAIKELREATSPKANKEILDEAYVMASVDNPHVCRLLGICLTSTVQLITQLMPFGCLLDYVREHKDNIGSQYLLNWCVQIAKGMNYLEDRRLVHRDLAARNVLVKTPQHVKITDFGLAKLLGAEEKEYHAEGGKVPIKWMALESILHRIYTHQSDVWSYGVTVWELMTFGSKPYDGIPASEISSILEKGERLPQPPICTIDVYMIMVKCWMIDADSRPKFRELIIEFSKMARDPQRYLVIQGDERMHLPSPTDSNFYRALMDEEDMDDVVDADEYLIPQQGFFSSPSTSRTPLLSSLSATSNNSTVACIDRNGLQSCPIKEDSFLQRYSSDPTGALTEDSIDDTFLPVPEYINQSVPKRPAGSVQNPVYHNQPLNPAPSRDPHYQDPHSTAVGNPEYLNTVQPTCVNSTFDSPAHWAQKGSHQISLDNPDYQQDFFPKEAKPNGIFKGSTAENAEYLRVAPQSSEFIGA
Sequence of Receptor tyrosine-protein kinase erbB-2 (Homo sapiens, UniProt P04626, D769Y) (P04626 23-1255 D769Y limits assumed): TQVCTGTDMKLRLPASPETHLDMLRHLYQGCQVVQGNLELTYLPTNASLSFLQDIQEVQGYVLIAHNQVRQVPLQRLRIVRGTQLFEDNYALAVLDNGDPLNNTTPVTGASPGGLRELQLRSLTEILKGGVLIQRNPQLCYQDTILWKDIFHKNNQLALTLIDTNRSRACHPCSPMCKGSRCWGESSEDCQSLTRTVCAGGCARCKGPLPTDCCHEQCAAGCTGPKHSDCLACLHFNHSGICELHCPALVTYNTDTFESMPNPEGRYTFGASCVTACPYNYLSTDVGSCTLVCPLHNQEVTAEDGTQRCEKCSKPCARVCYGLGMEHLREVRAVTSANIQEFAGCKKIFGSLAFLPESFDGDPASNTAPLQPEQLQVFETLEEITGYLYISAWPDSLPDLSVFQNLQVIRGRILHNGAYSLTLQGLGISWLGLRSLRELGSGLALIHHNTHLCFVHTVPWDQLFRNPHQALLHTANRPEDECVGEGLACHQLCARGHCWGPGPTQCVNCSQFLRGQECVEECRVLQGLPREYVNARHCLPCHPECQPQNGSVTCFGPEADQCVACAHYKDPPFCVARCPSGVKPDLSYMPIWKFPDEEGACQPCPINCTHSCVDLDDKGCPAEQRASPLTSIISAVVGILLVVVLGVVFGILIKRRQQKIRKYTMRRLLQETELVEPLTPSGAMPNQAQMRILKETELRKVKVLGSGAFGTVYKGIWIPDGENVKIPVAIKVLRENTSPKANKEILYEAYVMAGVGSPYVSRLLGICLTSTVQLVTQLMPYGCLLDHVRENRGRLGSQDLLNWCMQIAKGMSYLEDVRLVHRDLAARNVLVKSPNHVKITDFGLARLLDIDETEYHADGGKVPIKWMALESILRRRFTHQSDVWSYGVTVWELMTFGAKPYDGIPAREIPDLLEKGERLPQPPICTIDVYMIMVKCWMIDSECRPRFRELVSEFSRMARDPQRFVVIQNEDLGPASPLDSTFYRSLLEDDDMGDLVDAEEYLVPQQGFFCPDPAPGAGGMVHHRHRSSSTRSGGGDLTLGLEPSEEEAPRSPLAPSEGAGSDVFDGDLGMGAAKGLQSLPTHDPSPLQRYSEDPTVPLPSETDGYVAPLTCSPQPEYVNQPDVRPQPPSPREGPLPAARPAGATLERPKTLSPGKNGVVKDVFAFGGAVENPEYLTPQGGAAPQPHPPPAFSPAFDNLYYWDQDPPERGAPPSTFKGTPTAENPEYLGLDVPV
Sequence of Receptor tyrosine-protein kinase erbB-2 (Homo sapiens, UniProt P04626, V777L) (P04626 23-1255 V777L limits assumed): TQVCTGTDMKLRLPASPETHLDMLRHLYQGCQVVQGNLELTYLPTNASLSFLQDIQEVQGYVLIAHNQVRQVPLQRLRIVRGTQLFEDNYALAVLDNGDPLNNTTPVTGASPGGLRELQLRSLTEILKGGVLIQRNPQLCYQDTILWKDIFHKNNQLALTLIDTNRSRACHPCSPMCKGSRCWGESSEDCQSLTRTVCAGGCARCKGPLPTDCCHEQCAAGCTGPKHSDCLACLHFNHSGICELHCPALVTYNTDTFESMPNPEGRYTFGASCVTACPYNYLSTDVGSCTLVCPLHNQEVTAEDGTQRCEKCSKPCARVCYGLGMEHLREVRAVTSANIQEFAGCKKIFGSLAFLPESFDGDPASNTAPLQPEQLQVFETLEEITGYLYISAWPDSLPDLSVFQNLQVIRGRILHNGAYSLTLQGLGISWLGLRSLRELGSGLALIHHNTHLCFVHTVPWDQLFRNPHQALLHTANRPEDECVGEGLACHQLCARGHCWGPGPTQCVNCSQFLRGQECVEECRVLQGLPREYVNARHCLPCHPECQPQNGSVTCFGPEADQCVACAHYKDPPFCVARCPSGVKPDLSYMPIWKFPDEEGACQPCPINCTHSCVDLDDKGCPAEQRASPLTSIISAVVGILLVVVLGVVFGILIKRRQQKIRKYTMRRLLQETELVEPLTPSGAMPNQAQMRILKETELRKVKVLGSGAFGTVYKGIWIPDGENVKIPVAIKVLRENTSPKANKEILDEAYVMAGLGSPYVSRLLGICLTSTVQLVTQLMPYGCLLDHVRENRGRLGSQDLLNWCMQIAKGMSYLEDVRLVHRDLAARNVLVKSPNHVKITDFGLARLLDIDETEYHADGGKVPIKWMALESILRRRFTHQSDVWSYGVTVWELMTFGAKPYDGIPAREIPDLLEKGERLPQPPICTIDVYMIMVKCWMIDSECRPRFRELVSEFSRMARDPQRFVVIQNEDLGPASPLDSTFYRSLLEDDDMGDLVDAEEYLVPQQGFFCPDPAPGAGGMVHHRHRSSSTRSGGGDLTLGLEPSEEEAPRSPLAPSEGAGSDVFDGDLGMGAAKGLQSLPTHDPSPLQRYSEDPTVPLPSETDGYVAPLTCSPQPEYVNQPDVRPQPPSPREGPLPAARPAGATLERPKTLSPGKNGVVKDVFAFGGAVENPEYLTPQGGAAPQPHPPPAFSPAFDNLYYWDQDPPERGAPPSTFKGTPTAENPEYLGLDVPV
Sequence of Receptor tyrosine-protein kinase erbB-2 (Homo sapiens, UniProt P04626, R896C) (P04626 23-1255 R896C limits assumed): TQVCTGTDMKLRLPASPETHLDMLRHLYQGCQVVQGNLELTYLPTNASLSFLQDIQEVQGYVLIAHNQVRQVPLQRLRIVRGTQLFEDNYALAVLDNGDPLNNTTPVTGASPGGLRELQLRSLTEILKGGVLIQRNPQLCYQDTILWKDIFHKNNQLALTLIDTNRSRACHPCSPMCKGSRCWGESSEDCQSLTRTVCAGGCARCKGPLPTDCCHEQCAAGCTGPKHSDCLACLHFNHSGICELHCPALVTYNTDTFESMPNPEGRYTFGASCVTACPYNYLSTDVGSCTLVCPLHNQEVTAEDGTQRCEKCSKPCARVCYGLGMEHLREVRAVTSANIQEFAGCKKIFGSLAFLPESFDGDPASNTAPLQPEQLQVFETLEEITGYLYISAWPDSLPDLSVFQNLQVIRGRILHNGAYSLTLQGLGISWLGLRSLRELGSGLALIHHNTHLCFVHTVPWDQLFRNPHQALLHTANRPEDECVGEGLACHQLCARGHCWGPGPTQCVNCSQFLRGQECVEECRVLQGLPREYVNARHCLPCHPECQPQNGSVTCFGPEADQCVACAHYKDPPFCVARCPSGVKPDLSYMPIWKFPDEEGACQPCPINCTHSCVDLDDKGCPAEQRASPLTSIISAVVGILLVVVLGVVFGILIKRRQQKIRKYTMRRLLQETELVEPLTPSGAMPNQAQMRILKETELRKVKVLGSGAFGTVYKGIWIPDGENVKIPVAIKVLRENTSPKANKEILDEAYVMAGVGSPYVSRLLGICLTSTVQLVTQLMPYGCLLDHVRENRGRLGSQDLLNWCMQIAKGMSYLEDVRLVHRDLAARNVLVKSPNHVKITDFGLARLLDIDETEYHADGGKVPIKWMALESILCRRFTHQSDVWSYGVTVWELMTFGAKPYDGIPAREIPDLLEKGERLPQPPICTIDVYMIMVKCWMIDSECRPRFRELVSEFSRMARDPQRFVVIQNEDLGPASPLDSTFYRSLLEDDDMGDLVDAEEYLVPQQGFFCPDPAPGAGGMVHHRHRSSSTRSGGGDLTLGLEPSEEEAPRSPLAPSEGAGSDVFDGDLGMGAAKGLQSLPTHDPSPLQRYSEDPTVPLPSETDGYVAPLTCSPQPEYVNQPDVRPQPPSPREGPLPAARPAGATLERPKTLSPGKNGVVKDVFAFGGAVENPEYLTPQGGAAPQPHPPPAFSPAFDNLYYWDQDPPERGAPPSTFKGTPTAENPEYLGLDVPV

## CCOc1cc2ncnc(Nc3ccc(Oc4cc5nncn5cn4)c(C)c3)c2cc1NC(=O)/C(F)=C/[C@H]1CCCN1C
[1]
  IC50: 8.13 nM
NCI-N87 [2]
  IC50: 1.09 nM
BT-474 [3]
  IC50: 2.01 nM
NCI-N87 [4]
  T/C: 2.03%
[5]
  microsomal CLint at 1 µM: 2.5 µL/min/mg
[6]
  clearance: 11.7 mL/min/kg
[7]
  half-life: 3.76 h
[8]
  Vd: 2.96 L/kg
[9]
  Cmax: 1900 ng/mL
[10]
  Tmax: 2.67 h
[11]
  AUC(0-t) at 24 h: 13100 ng·h/mL
[12]
  bioavailability: 87.7%
[13]
  half-life: 4.56 h
[14]
  Vd: 3.55 L/kg
[15]
  AUC(0-t) at 24 h: 5470 ng·h/mL
[16]
  half-life: 4.38 h
[17]
  bioavailability: 71.3%
[18]
  half-life: 7.46 h
[19]
  Vd: 3.71 L/kg
[20]
  AUC(0-t) at 24 h: 10400 ng·h/mL
[21]
  half-life: 5.63 h
[22]
  bioavailability: 43.4%
MDA-MB-468
  IC50: 2980 nM
ES-2
  IC50: 2720 nM
MFE-280
  IC50: 3970 nM
NUGC-4
  IC50: 1220 nM
[23]
  IC50: 0.43 nM
[24]
  IC50: 0.16 nM
[25]
  IC50: 0.56 nM
NCI-N87 [26]
  inhibition in vivo at 20 mg/kg/day: 114%
BT-474 [27]
  inhibition in vivo at 20 mg/kg/day: 123%
[28]
  Activity: Non-Toxic
BaF3
  T/C: 2%
[29]
  Activity: Non-Toxic
[30]
  Activity: Non-Toxic
BT-474 [31]
  inhibition in vivo at 10 mg/kg/day: 123%
